Results on four compounds are retold here after patent US7300784B2 (priority 2001, dated 2007).

The term Km denotes the concentration of substrate that gives half-maximal velocity.

Several values for one entry are separate records, joined by “and”; a condition that tells them apart may be missing. Identical values can stand only once. Like-named read-outs stand apart in the source and are kept apart here.

In assay [1] the test system is nitrile hydratase of Rhodococcus sp. Cr4. Briefly: Effect of coexisting Ni++ ion with various substrates. It is filed as biochemical. As for the experimental part: Then, with the standard composition of reaction solution shown in table 2, various types of substrates, instead of 3-cyanopyridine, were added to the solutions containing 2.92 U enzyme to study their effects on the activity. […] The addition of Ni^++ ion was assumed to specifically enhance the reaction efficiency when the substrate was a α-hydroxynitrile (Table 11).
The incubation was prolonged for 10 minutes at 20° C. using 2.92 U enzyme. 17. Determination of N-Terminal Amino Acid Sequence

The test system is the same in assay [2]. The experiment in a line: Effect of substrate concentration (Km value, Lineweaver-Burk plot). The assay is classed as biochemical. The following applies: 20° C., 15 minutes. As for the experimental part: The Km value for HMBN was determined from the S-V plot (FIG. 4) and Lineweaver-Burk plot (FIG. 5). 0.0585 U of the enzyme was added to solutions containing HMBN at various concentrations and the reactions were incubated at 20° C. for 15 minutes. The reactions were analyzed by HPLC.
In addition, the Km value for 3-cyanopyridine was determined from the S-V plot (FIG. 6) and Lineweaver-Burk plot (FIG. 7). Similarly, 0.0265 U of the enzyme was added to solutions containing 3-cyanopyridine at various concentrations and the reactions were incubated at 20° C. for 15 minutes. The reactions were analyzed by HPLC.

Assay [3] shares this test system. Briefly: Substrate specificity of the purified nitrile hydratase (amide formation by HPLC). The assay is classed as biochemical. The note with it: compound used as substrate, 20° C., 2.92 U enzyme. As to the method:
The standard assay method for the nitrile hydratase activity used in the following Examples as follows. The enzyme reaction is initiated by adding 3-cyanopyridine or 2-hydroxy-4-methylthiobutyronitrile (HMBN) as the substrate compound. In the case of 3-cyanopyridine, incubation was continued at 20° C. for 10 minute, in the case of HMBN, at 20° C. for 15 minutes. When 3-cyanopyridine was used in the reaction, 0.1 ml of 2 N hydrochloric acid was added to the reaction and the mixture was shaken vigorously to stop the reaction; when HMBN was used in the reaction, 0.1 ml of the reaction solution was added to 0.9 ml of 0.1% (v/v) phosphoric acid and the mixture was shaken vigorously to stop the reaction. The reaction solution was analyzed by HPLC.
• 0.3 M 3-cyanopyridine was added to initiate the reaction. • The mixture was incubated with shaking at 20° C. for […]. • 2 N HCl was added to stop the reaction. • Centrifugation. • HPLC analysis.
The substrate specificity of the enzymewas examined. With the standard composition reaction solution shown in table 2, 2.92 U enzyme was incubated with various types of substrates, instead of 3-cyanopyridine; the generation of amides in the reaction solution was analyzed by HPLC. Thus, the relative activity was determined. The types of substrate compounds added, final concentrations thereof, reaction times, and HPLC conditions used for the analyses of products corresponding to the respective substrates are shown in Table 6. The HPLC conditions (1)-(9) are indicated next to Table 6.
The conditions for HPLC were as follows: • (1) Column: Waters Spherisorb 5 μODS2 (4.6×150 mm); • Solvent: 10 mM KH2PO4(pH 2.8)/acetonitrile (v/v)=9:1; • Flow rate: 1.0 ml/min; • Detection: 230 nm; • Injection volume: 5 μl. • (2) Column: Waters Spherisorb 5 μODS2 (4.6×150 mm); • Solvent: 10 mM KH2PO4(pH 2.8)/acetonitrile (v/v)=9:1; • Flow rate: 1.0 ml/min; • Detection: 230 nm; • Injection volume:5 μl. • (3) Column: Waters Spherisorb 5 μODS2 (4.6×150 mm); • Solvent: 5 mM KH2PO4 (pH 2.8)/acetonitrile (v/v)=12:7; • Flow rate: 1.0 ml/min; • Detection: 230 nm; • Injection volume: 5 μl. • (4) Column: Waters Spherisorb 5 μODS2 (4.6×150 mm); • Solvent: 10 mM KH2PO4(pH 2.5)/acetonitrile (v/v)=99:1; • Flow rate: 1.0 ml/min; • Detection: 210 nm; • Injection volume: 5 μl. • (5) Column: Waters Spherisorb 5 μODS2 (4.6×150 mm); • Solvent: 10 mM KH2PO4(pH 2.5)/acetonitrile (v/v)=99:1; • Flow rate: 1.0 ml/min; • Detection: 230 nm; • Injection volume: 5 μl. • (6) Column: Spherisorb S5ODS2 (4.6×150 mm) • Solvent: 0.1% (v/v) phosphate/acetonitrile (v/v)=99:1; • Flow rate: 1.0 ml/min; • Detection: 210 nm; • Injection volume: 5 μl. • (7) Column: Spherisorb S5ODS2 (4.6×150 mm); • Solvent: 0.1% (v/v) phosphate/acetonitrile (v/v)=9:1; • Flow rate: 1.0 ml/min; • Detection: 210 nm; • Injection volume: 5 μl; • Temperature: 40° C. • (8) Column: Spherisorb S5ODS2 (4.6×150 mm); • Solvent: 0.1%(v/v) phosphate/acetonitrile (v/v)=9:1; • Flow rate: 1.0 ml/min; • Detection: 230 nm; • Injection volume: 5 μl • Temperature: 40° C. • (9) Column: Spherisorb S5ODS2 (4.6×150 mm); • Solvent: 5 mM KH2PO4 (pH 2.8)/acetonitrile (v/v)=12:7; • Flow rate: 1.0 ml/min; • Detection: 210 nm; • Injection volume: 5 μl; • Temperature: 40° C. 13. The Effect of Inhibitors on the Enzymatic Activity

For assay [4] the test system is unchanged. The assay is classed as biochemical.
In assay [5] the test system is Rhodococcus rhodochrous ATCC 332878. It is filed as cell-based.
For a further assay, the system named is Rhodococcus sp. Cr4. The assay is classed as cell-based.
The mark [6] stands for this setting: activity for 3-cyanopyridine = 100%.

As to `N#Cc1cccnc1` [3-Cyanopyridine], in assay [1], the “activity, Free” value turned out to be 100 and the “activity, NiCl2 (1 mM)” value amounted to 99. Further, the Km in assay [2] was found to be 1380 µM. Further, the “Relative activity (%)” value in assay [3] (setting [6]) is 100%. The “Relative activity (%)” value in assay [3] (methanol added (final conc. 20% v/v)) is on record as 76.5%.

Turning to `CSCCC(O)C#N` (centres unmarked) [HMBN, 2-hydroxy-4-methylthiobutyronitrile], in assay [1], the “activity, Free” value is on record as 100 and the “activity, NiCl2 (1 mM)” value is recorded as 196. The “effect of Ni++ on activity with this substrate” value in assay [1] (Ni++ added) is listed as “enhanced twice”. The Km in assay [2] turned out to be 1430 µM. Moreover, the “Relative activity (%)” value in assay [3] (setting [6]) worked out at 154%.

For the compound `[Cl][Ni][Cl]` [NiCl2], in assay [4], the “Relative activity (%)” value is 196% and 185% and 171% and 197% and 195% and 184%; the “effect on enzyme activity (words)” value is given as “enhanced”; the “enhancement of the enzymatic activity” value is “enhanced twice”. For the same compound, the “Relative activity (%)” value in assay [5] was found to be 193%. Also, in the assay on Rhodococcus sp. Cr4, the “Relative activity (%)” value turned out to be 186% and the “effect on nitrile hydratase activity in resting cell reaction” value is given as “enhanced”.

Regarding CoCl2, the “Relative activity (%)” value was 154% in assay [4]; 136% and 127% and 129% and 150% and 153% and 143% in assay [4] (0 mM = 100); 123% in assay [5]; 137% in the assay on Rhodococcus sp. Cr4. The “effect on enzyme activity (words)” value in assay [4] is “enhanced”. In assay [4], the “enhancement of the enzymatic activity” value turned out to be 1.5 times. The “effect on nitrile hydratase activity in resting cell reaction” value in the assay on Rhodococcus sp. Cr4 was “enhanced”.
